Data on seven compounds can be found in patent US20240279171A1, “METHODS FOR PREPARING CRYSTALLINE FORMS OF AMISULPRIDE” (SUNOVION PHARMACEUTICALS INC., priority 2021, published 2024).

Data set [1] is described as follows: Particle size distribution by laser diffraction (Malvern Mastersizer 3000), Example 9. It counts as physicochemical. The following applies: pre-sieved through 30 mesh screen, 0.2% Span 85 in hexanes. The protocol: Prior to analysis, the Form A′ crystals of (S)-amisulpride and Form A crystals of (R)-amisulpride were separately pre-sieved through a 30 mesh screen. All material was passed through screen during this pre-sieving step including aggregates.
Particle size distribution (PSD) measurements were measured by laser diffraction using a Malvern Instruments Mastersizer 3000 particle size analyzer instrument operated with the instrumentation and parameters described in Table 7.
The samples were first sieved through a 30 mesh screen prior to suspension. Approximately 400 mg of the sieved sample was weighed into a 50 ml beaker and 40 ml of a 0.2% v/v Span 85 (Sorbitan trioleate) in hexanes dispersant solution (e.g., a dispersant solution prepared by dissolving 2 mL of Span 85 (Sorbitan trioleate) in 1 L of hexanes) added. The overhead stirrer impeller was placed slightly above the bottom of the beaker (about 1 to 1.5 cm) and stirred at 500 rpm. After 1 minute, a disposable graduated transfer pipette was used to remove about 3 mL of the sample suspension from the center position of the beaker between impeller shaft and beaker side, and midway between top of vortex and beaker bottom. The entire contents of the pipette were added to the Malvern sample cell without inverting the pipette and the pipette rinsed twice with the circulating dispersant from the sample cell. The obscuration should be between 7% and 15%, if the obscuration was less than 7%, another aliquot of sample was added, making sure to transfer the entire aliquot taken up in the transfer pipette to the instrument, in order to avoid, e.g., potential artifacts due to settling of the suspension within the pipette. If the obscuration was greater than 15%, the instrument was drained and rinsed, and the measurement performed using a smaller sample suspension aliquot. After a sample cell with acceptable obscuration was obtained, the sample was circulated in the Mastersizer Hydro MV circulation system for two minutes and the sample dispersion measured.

Data set [2] can be described thus: Dynamic vapor sorption (DVS) water sorption isotherm. It counts as physicochemical. The conditions noted are these: 25° C.; for hygroscopicity: DVS. An excerpt: In various embodiments, the hygroscopicity of a compound is characterized by dynamic vapor sorption (DVS). DVS is a gravimetric technique that measures how much of a solvent is absorbed by a sample by varying the vapor concentration surrounding the sample (e.g., relative humidity) and measuring the change in mass. DVS was used herein to generate water sorption isotherms, which represent the equilibrium amount of water vapor adsorbed and/or absorbed as a function of steady state relative water vapor pressure at a constant temperature.
Dynamic vapor sorption (DVS) isotherms were generated using a VTI SGA-100 Symmetric Vapor Sorption Analyzer. Analysis included pre-analysis drying at 25° C. with equilibrium criteria of 0.0000 wt % change in 5 minutes or a maximum of 180 minutes. Equilibrium criteria were the lesser of 0.01 wt % change in 5 minutes or 180 minutes at each RH step. […] Analysis was repeated for each sample in consecutive analyses (i.e., the sample was not removed from analyzer between analyses).
Tables 9A and 9B presents the DVS water sorption for crystalline enantiomeric amisulpride of Form A and Form A′ shown in FIG. 7A.

The nature of data set [3]: Specific surface area (SSA), nitrogen gas, Quantachrome Quadrasorb SI. It counts as physicochemical. The following applies: degassed 2 hours at 40° C. under vacuum. The procedure: Specific surface area (SSA) was measured using a Quantachrome Quadrasorb SI surface area analyzer performed at six-points over the relative pressure range of 0.1000 to 0.3500 in 0.0500 increments. Approximately 1.3 to 4.6 grams of sample were used per analysis and were weighed into bulb tubes. Samples in bulb tubes were degassed 2 hours at 40° C. under vacuum using the Quantachrome FlowVac degasser prior to surface area analysis. Nitrogen gas was used as the gas for the surface area analyses.

The conditions of data set [4]: DVS, 25° C., 0 to 95% relative humidity; '738 patent; cited from earlier work.
Data set [5] can be described thus: Particle size distribution (Malvern Mastersizer), Example 16. The following applies: for PSD D10 (μm) / PSD D50 (μm) / PSD D90 (μm): cooling method Y (Example 4) vs cooling method X (Example 14); for D10 (μm) / D50 (μm) / D90 (μm): crystalline amisulpride used in the tablet formulations, Mastersizer 2000. It counts as physicochemical. The source says: The particle size distribution (PSD) of crystalline products prepared by the foregoing examples were examined. FIG. 10 presents a plot of the cooling profile comparison between the cooling profile X, using the recrystallization procedure of, e.g., Example 14, with cooling profile Y, using the recrystallization procedure of, e.g., Example 4 (Step 2). Recrystallization using the cooling methods of Example 14 (cooling method X) provided Form A′ having a smaller particle size distribution (e.g., D50 and D90 values) than Form A′ prepared by the methods of Example 4 (cooling method Y), as shown in the table below.
PSD data was obtained using a Malvern Instruments Mastersizer particle size analyzer instrument.
The PSD of the crystalline amisulpride used in the various formulations are provided below. Amisulpride corresponding to “small PSD” can be prepared using the recrystallization and cooling methods of, e.g., Examples 14 and 15 (i.e., cooling profile X of FIG. 10). Amisulpride corresponding to “large PSD” can be prepared using the recrystallization methods of Examples 1 and 3 (i.e., cooling profile Y of FIG. 10). The PSDs were measured using a Mastersizer 2000 particle size analyzer instrument as described above.

Setting [6] is: listed as Form A′ (averages of lots prepared by the methods of Example 4).

Read-outs that look alike come from different tables or passages of the source.

As to `CCN1CCC[C@@H]1CNC(=O)c1cc(S(=O)(=O)CC)c(N)cc1OC` [(R)-amisulpride Form A, (R)-4-Amino-N-[(1-ethyl-2-pyrrolidinyl)methyl]-5-(ethylsulfonyl)-2-methoxybenzamide], the “Average PSD D10 (μm)” value in data set [1] is 14.3 μm. Moreover, in data set [1], the “Average PSD D50 (μm)” value turned out to be 47.7 μm. Moreover, in data set [1], the “Average PSD D90 (μm)” value is given as 133.9 μm. Also, the “DVS Ads. at 95% RH” value in data set [2] stood at 0.14. For the same compound, the “Change Mass (wt %)” value is 0.000 wt % in data set [2] (Relative Humidity 1.39 %, elapse time 155.38 min); −0.003 wt % in data set [2] (Relative Humidity 4.79 %, elapse time 327.39 min); 0.003 wt % in data set [2] (Relative Humidity 10.00 %, elapse time 340.39 min); 0.009 wt % in data set [2] (Relative Humidity 14.96 %, elapse time 359.89 min); 0.015 wt % in data set [2] (Relative Humidity 19.81 %, elapse time 366.91 min); 0.020 wt % in data set [2] (Relative Humidity 24.91 %, elapse time 374.93 min). Also, the “Change Mass (wt %)” value in data set [2] (Relative Humidity 30.02 %, elapse time 382.94 min) is reported as 0.026 wt %; in data set [2] (Relative Humidity 34.96 %, elapse time 390.96 min), 0.031 wt %; in data set [2] (Relative Humidity 39.94 %, elapse time 398.96 min), 0.038 wt %; in data set [2] (Relative Humidity 44.99 %, elapse time 406.96 min), 0.043 wt %; in data set [2] (Relative Humidity 49.99 %, elapse time 415.98 min) it was 0.049 wt %; in data set [2] (Relative Humidity 54.96 %, elapse time 424.99 min), 0.055 wt %. The “Change Mass (wt %)” value in data set [2] (Relative Humidity 59.96 %, elapse time 434.01 min) was 0.061 wt %; in data set [2] (Relative Humidity 64.91 %, elapse time 443.03 min) it was 0.067 wt %; in data set [2] (Relative Humidity 69.86 %, elapse time 452.04 min), 0.073 wt %; in data set [2] (Relative Humidity 74.86 %, elapse time 461.04 min), 0.080 wt %; in data set [2] (Relative Humidity 79.80 %, elapse time 470.04 min) it was 0.087 wt %; in data set [2] (Relative Humidity 84.74 %, elapse time 479.04 min) it was 0.101 wt %. Also, the “Change Mass (wt %)” value in data set [2] (Relative Humidity 89.58 %, elapse time 488.06 min) is listed as 0.113 wt %; in data set [2] (Relative Humidity 94.72 %, elapse time 497.06 min), 0.135 wt %. For the same compound, the hygroscopicity entry in data set [2] and in data set [4] was “substantially non-hygroscopic” in each case. Also, the “SSA (m^2/g)” value in data set [3] is 0.51 m^2/g.

As for `CCN1CCC[C@H]1CNC(=O)c1cc(S(=O)(=O)CC)c(N)cc1OC` [(S)-amisulpride Form A′, (S)-4-Amino-N-[(1-ethyl-2-pyrrolidinyl)methyl]-5-(ethylsulfonyl)-2-methoxybenzamide], the “Average PSD D10 (μm)” value in data set [1] worked out at 9.5 μm. Also, the “Average PSD D50 (μm)” value in data set [1] is on record as 32.3 μm. Further, in data set [1], the “Average PSD D90 (μm)” value is reported as 116.9 μm. Further, the “PSD D10 (μm)” value in data set [5] (setting [6]) stood at 6.0 μm. Further, the “PSD D50 (μm)” value in data set [5] (setting [6]) is recorded as 29.1 μm. Moreover, in data set [5] (setting [6]), the “PSD D90 (μm)” value stood at 99.4 μm. The “DVS Ads. at 95% RH” value in data set [2] was 0.09. Besides, the “Change Mass (wt %)” value in data set [2] (Relative Humidity 1.41 %, elapse time 180.73 min) turned out to be 0.000 wt %; in data set [2] (Relative Humidity 5.38 %, elapse time 195.14 min), 0.003 wt %; in data set [2] (Relative Humidity 10.12 %, elapse time 207.64 min) it was 0.006 wt %; in data set [2] (Relative Humidity 15.00 %, elapse time 219.64 min), 0.011 wt %; in data set [2] (Relative Humidity 19.73 %, elapse time 227.64 min) it was 0.017 wt %; in data set [2] (Relative Humidity 24.91 %, elapse time 235.64 min), 0.023 wt %. Also, the “Change Mass (wt %)” value was 0.029 wt % in data set [2] (Relative Humidity 29.95 %, elapse time 243.64 min); 0.033 wt % in data set [2] (Relative Humidity 34.98 %, elapse time 251.64 min); 0.038 wt % in data set [2] (Relative Humidity 40.01 %, elapse time 260.64 min); 0.042 wt % in data set [2] (Relative Humidity 44.94 %, elapse time 269.64 min); 0.049 wt % in data set [2] (Relative Humidity 50.00 %, elapse time 278.64 min); 0.053 wt % in data set [2] (Relative Humidity 55.02 %, elapse time 287.66 min). Besides, the “Change Mass (wt %)” value was found to be 0.059 wt % in data set [2] (Relative Humidity 59.89 %, elapse time 296.66 min); 0.066 wt % in data set [2] (Relative Humidity 64.92 %, elapse time 305.66 min); 0.072 wt % in data set [2] (Relative Humidity 69.86 %, elapse time 314.66 min); 0.076 wt % in data set [2] (Relative Humidity 74.97 %, elapse time 323.66 min); 0.084 wt % in data set [2] (Relative Humidity 79.71 %, elapse time 332.66 min); 0.094 wt % in data set [2] (Relative Humidity 84.74 %, elapse time 341.66 min). Further, the “Change Mass (wt %)” value in data set [2] (Relative Humidity 89.75 %, elapse time 350.66 min) was 0.103 wt %; in data set [2] (Relative Humidity 94.55 %, elapse time 359.68 min), 0.114 wt %. The hygroscopicity result in data set [2] and in data set [4] was “substantially non-hygroscopic” in each case. Further, in data set [3], the “SSA (m^2/g)” value came out at 0.65 m^2/g.

`CCN1CCC[C@@H]1CNC(=O)c1cc(S(=O)(=O)CC)c(N)cc1OC` [Form A large PSD]: in data set [5], the “D10 (μm)” value came out at 12.8 μm, the “D50 (μm)” value was determined as 94.9 μm and the “D90 (μm)” value was 441.4 μm.

With `CCN1CCC[C@@H]1CNC(=O)c1cc(S(=O)(=O)CC)c(N)cc1OC` [Form A small PSD], in data set [5], the “D10 (μm)” value stood at 4.7 μm, the “D50 (μm)” value was 18.2 μm and the “D90 (μm)” value was 90.4 μm.

For `CCN1CCC[C@H]1CNC(=O)c1cc(S(=O)(=O)CC)c(N)cc1OC` [Form A′ large PSD], in data set [5], the “D10 (μm)” value was determined as 31.6 μm, the “D50 (μm)” value came to 93.1 μm and the “D90 (μm)” value stood at 425.4 μm.

In the case of `CCN1CCC[C@H]1CNC(=O)c1cc(S(=O)(=O)CC)c(N)cc1OC` [Form A′ prepared by Example 14, (S)-4-Amino-N-[(1-ethyl-2-pyrrolidinyl)methyl]-5-(ethylsulfonyl)-2-methoxybenzamide], in data set [5], the “PSD D10 (μm)” value was 7.0 μm, the “PSD D50 (μm)” value came to 25.5 μm and the “PSD D90 (μm)” value is reported as 83.9 μm.

Consider `CCN1CCC[C@H]1CNC(=O)c1cc(S(=O)(=O)CC)c(N)cc1OC` [Form A′ small PSD], for which, in data set [5], the “D10 (μm)” value came out at 5.1 μm, the “D50 (μm)” value is reported as 18.3 μm and the “D90 (μm)” value is given as 80.1 μm.
